Source: patent publication US4870002A, “Method of prevention of oxidative injury to cells” (priority 1985, dated 1989)

Tested on: L5178Y murine lymphosarcoma cells
Assay: Growth curve after gamma irradiation (final/initial cell density)
Type: cell-based
Procedure: The cell density in a mass culture of thymidine hypoxanthine methotrexate glycine/thymidine hypoxanthine glycine (THMG/THG) treated L5178Y cells was determined by Coulter counter and the cells were diluted with fresh warm F10p medium to bring the cell density for treatment to 600,000 cells/ml. Volumes of 10 ml of cell suspension were distributed into three T-25 flasks, and 0.05 ml volumes of solutions of 3-aminotyrosine, as well as a 0.05 ml of distilled water used as a control, to provide a ratio of 5 microliters per 1 ml of cell suspension (a 1:200 dilution) in each flask. In these experiments, the cells were treated with chemical under reduced lighting, but not as totally light sensitive.
The cells were then reincubated for 10 minutes at 37° C. The flasks were then placed simultaneously in the chamber of the GammaCell 40 irradiator at room temperature. The dose rate for the Cesium-137 exposure was 121.6 rads/min. It has been determined that the temperature of water in a T-25 flask originally at 37° C. placed in the irradiation chamber decreases during an 8 min period to approximately 30° C. Flasks were removed after exposure of 0, 250 rads (2.5 Gy), 500 rads (5.0 Gy), and 1000 rads (10 Gy).
After the irradiation, the cells were centrifuged and the supernatant discarded. The cells were resuspended in F10p medium, and again centrifuged. The washing process was repeated and the cells were resuspended in 10 ml of complete medium and counted.
A growth curve study was performed in duplicate by initiating flasks with 60 ml of cell suspension at 20,000 cells per ml. The cells were incubated at 37° C. with continued rotation in 250 ml plastic Erlenmeyer flasks. The cell density was determined by Coulter counter on a daily basis over a 72 hour period.
THMG/THG treated L5178Y cells were mass cultured and the cell density determined. Aliquots of the cell suspension with enough cells to give 300,000 cells per ml in 60 ml (1.8×10^7 cells) were distributed into three 50 ml centrifuge tubes, and after centrifugation, the original growth medium was discarded. The cells were resuspended in GIBCO custom formulation medium which had been prepared without phenol red. The cells were then washed one more time by centrifugation and resuspended again in 10 ml of the phenol red-free medium. These 10 ml suspensions of cells containing 1.8×10^7 cells were then transferred into three flasks already containing 50 ml of phenol red-free medium, distilled water, and either 100 nanomoles/ml or 2 micromoles/ml solutions of 3-aminotyrosine. The exposure system was treated as light sensitive (i.e., procedures were performed under gold light or reduced lighting). The cells were then incubated in the dark at 37° C. for 16 hours. Immediately prior to the end of the 16 hours, the cell density was determined by Coulter counter.
At 16 hours, the cells were irradiated at 0, 250, 500, and 1000 rads as described above in the GammaCell irradiator at room temperature. Immediately after irradiation was completed, the cells were centrifuged, washed twice with F10p, and resuspended in 10 ml of F10p. The cell density was again determined by Coulter counter. Growth curve determinations with initial seeding at 20,000 cells per ml were performed for 72 hours as described above. Cell survival assay by soft agar colony formation was performed as described above, using 0.22% BBL agar (BBL Microbiology Systems) in place of the DIFCO agar previously employed. After 11 days incubation at 37° C., colonies were counted and cell survival was determined.

With `Nc1cc(C[C@H](N)C(=O)O)ccc1O` [3-aminotyrosine, 3-amino-L-tyrosine] the “Final Cell Density/Initial Cell Density” value (Sixteen hour incubation, 0 rads, 2 micromoles/ml) was 71.4, the “Final Cell Density/Initial Cell Density” value (Sixteen hour incubation, 0 rads, 100 nanomoles/ml) was 83.3 and the “Final Cell Density/Initial Cell Density” value (Sixteen hour incubation, 250 rads, 2 micromoles/ml) was 34.6. The “Final Cell Density/Initial Cell Density” value (Sixteen hour incubation, 250 rads, 100 nanomoles/ml) was 50.5, the “Final Cell Density/Initial Cell Density” value (Sixteen hour incubation, 500 rads, 2 micromoles/ml) was 6.1 and the “Final Cell Density/Initial Cell Density” value (Sixteen hour incubation, 500 rads, 100 nanomoles/ml) was 5.3. For the same compound, the “Final Cell Density/Initial Cell Density” value (Sixteen hour incubation, 1000 rads, 2 micromoles/ml) was 1.1, the “Final Cell Density/Initial Cell Density” value (Sixteen hour incubation, 1000 rads, 100 nanomoles/ml) was 1.3 and the “Final Cell Density/Initial Cell Density” value (Zero hour incubation, 0 rads, 2 micromoles/ml) was 25.0. For the same compound, the “Final Cell Density/Initial Cell Density” value (Zero hour incubation, 0 rads, 100 nanomoles/ml) was 20.0, the “Final Cell Density/Initial Cell Density” value (Zero hour incubation, 250 rads, 2 micromoles/ml) was 15.9 and the “Final Cell Density/Initial Cell Density” value (Zero hour incubation, 250 rads, 100 nanomoles/ml) was 14.1. The “Final Cell Density/Initial Cell Density” value (Zero hour incubation, 500 rads, 2 micromoles/ml) was 7.7, the “Final Cell Density/Initial Cell Density” value (Zero hour incubation, 500 rads, 100 nanomoles/ml) was 7.7 and the “Final Cell Density/Initial Cell Density” value (Zero hour incubation, 1000 rads, 2 micromoles/ml) was 2.2. The “Final Cell Density/Initial Cell Density” value (Zero hour incubation, 1000 rads, 100 nanomoles/ml) was 2.2.
